Measured values reported in ChEMBL document CHEMBL1201862, “PubChem BioAssay data set” (2004).
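Where inhibition never reached the appropriate level, the endpoint shown equals the highest concentration tested. Otherwise, values were interpolated linearly from a five-concentration, 48-hour dose response in 96-well plates. GI50 = concentration required for 50% inhibition of growth.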 Active and inactive are the calls of the source. No stated cut-off is given here; in the data, active = GI50 up to about 1.1 µM and inactive = higher.

Legend:
Assay in all cases: DTP human tumour cell line panel, 48 h
786-0 = test system: 786-0
A549 = test system: A549
ACHN = test system: ACHN
CCRF-CEM = test system: CCRF-CEM
COLO 205 = test system: COLO 205
DMS-114 = test system: DMS-114
DMS-273 = test system: DMS-273
EKVX = test system: EKVX
HCT-116 = test system: HCT-116
HCT-15 = test system: HCT-15
HL-60 = test system: HL-60
HOP-62 = test system: HOP-62
HT-29 = test system: HT-29
IGROV-1 = test system: IGROV-1
K562 = test system: K562
KM-20L2 = test system: KM-20L2
KM12 = test system: KM12
LOX IMVI = test system: LOX IMVI
LXFL 529 = test system: LXFL 529
M14 = test system: M14
M19-MEL = test system: M19-MEL
MOLT-4 = test system: MOLT-4
Malme-3M = test system: Malme-3M
NCI-H226 = test system: NCI-H226
NCI-H23 = test system: NCI-H23
NCI-H460 = test system: NCI-H460
NCI-H522 = test system: NCI-H522
OVCAR-3 = test system: OVCAR-3
OVCAR-4 = test system: OVCAR-4
OVCAR-5 = test system: OVCAR-5
OVCAR-8 = test system: OVCAR-8
RPMI-8226 = test system: RPMI-8226
RXF 393 = test system: RXF 393
SF-268 = test system: SF-268
SF-295 = test system: SF-295
SF-539 = test system: SF-539
SK-MEL-28 = test system: SK-MEL-28
SK-MEL-2 = test system: SK-MEL-2
SK-MEL-5 = test system: SK-MEL-5
SN12C = test system: SN12C
SNB-19 = test system: SNB-19
SNB-75 = test system: SNB-75
SNB-78 = test system: SNB-78
SR = test system: SR
SW-620 = test system: SW-620
TK-10 = test system: TK-10
U-251 = test system: U-251
UACC-62 = test system: UACC-62
UO-31 = test system: UO-31
XF498 = test system: XF498
A498 = test system: A498
CAKI-1 = test system: CAKI-1
DLD-1 = test system: DLD-1
HCC 2998 = test system: HCC 2998
HOP-18 = test system: HOP-18
SK-OV-3 = test system: SK-OV-3
UACC-257 = test system: UACC-257

O=C1CC2(CCC3=C(O2)c2ccccc2NC(=O)C3)C(=O)c2ccccc2N1 (stereo unspecified)
GI50 (786-0): > 100 µM (inactive) | GI50 (A549): > 100 µM (inactive) | GI50 (ACHN): > 100 µM (inactive) | GI50 (CCRF-CEM): > 100 µM (inactive) | GI50 (COLO 205): > 100 µM (inactive) | GI50 (DMS-114): > 100 µM (inactive) | GI50 (DMS-273): > 100 µM (inactive) | GI50 (EKVX): > 100 µM (inactive) | GI50 (HCT-116): > 100 µM (inactive) | GI50 (HCT-15): > 100 µM | GI50 (HL-60): > 100 µM (inactive) | GI50 (HOP-62): > 100 µM (inactive) | GI50 (HT-29): > 100 µM (inactive) | GI50 (IGROV-1): > 100 µM (inactive) | GI50 (K562): 48.1 µM (inactive) | GI50 (KM-20L2): > 100 µM (inactive) | GI50 (KM12): > 100 µM (inactive) | GI50 (LOX IMVI): > 100 µM (inactive) | GI50 (LXFL 529): > 100 µM (inactive) | GI50 (M14): > 100 µM (inactive) | GI50 (M19-MEL): > 100 µM (inactive) | GI50 (MOLT-4): > 100 µM (inactive) | GI50 (Malme-3M): > 100 µM (inactive) | GI50 (NCI-H226): > 100 µM (inactive) | GI50 (NCI-H23): > 100 µM (inactive) | GI50 (NCI-H460): > 100 µM (inactive) | GI50 (NCI-H522): > 100 µM (inactive) | GI50 (OVCAR-3): > 100 µM (inactive) | GI50 (OVCAR-4): > 100 µM (inactive) | GI50 (OVCAR-5): > 100 µM (inactive) | GI50 (OVCAR-8): > 100 µM (inactive) | GI50 (RPMI-8226): 87.1 µM (inactive) | GI50 (RXF 393): > 100 µM (inactive) | GI50 (SF-268): > 100 µM (inactive) | GI50 (SF-295): > 100 µM (inactive) | GI50 (SF-539): > 100 µM (inactive) | GI50 (SK-MEL-28): > 100 µM (inactive) | GI50 (SK-MEL-2): > 100 µM (inactive) | GI50 (SK-MEL-5): > 100 µM (inactive) | GI50 (SN12C): > 100 µM (inactive) | GI50 (SNB-19): 98.6 µM (inactive) | GI50 (SNB-75): 22.2 µM (inactive) | GI50 (SNB-78): > 100 µM (inactive) | GI50 (SR): > 10 µM (inactive) | GI50 (SW-620): > 100 µM (inactive) | GI50 (TK-10): > 100 µM (inactive) | GI50 (U-251): > 100 µM (inactive) | GI50 (UACC-62): > 100 µM (inactive) | GI50 (UO-31): 41.9 µM (inactive) | GI50 (XF498): > 100 µM (inactive)

CC(C)CCCC(C)[C@H]1CCC2[C@@H]3CCC4Nc5nocc5C[C@]4(C)C3CC[C@@]21C (stereo partly specified)
GI50 (786-0): 11.4 µM (inactive) | GI50 (A498): 21.6 µM (inactive) | GI50 (A549): 21.2 µM (inactive) | GI50 (ACHN): 14.7 µM (inactive) | GI50 (CAKI-1): 14.4 µM (inactive) | GI50 (CCRF-CEM): 7.23 µM (inactive) | GI50 (COLO 205): 6.14 µM (inactive) | GI50 (DLD-1): 19.7 µM (inactive) | GI50 (DMS-273): 19.2 µM (inactive) | GI50 (EKVX): 16.1 µM (inactive) | GI50 (HCC 2998): 15.5 µM (inactive) | GI50 (HCT-116): 18.4 µM (inactive) | GI50 (HCT-15): 14.6 µM | GI50 (HL-60): 9.02 µM (inactive) | GI50 (HOP-18): 13.6 µM (inactive) | GI50 (HOP-62): 47.1 µM (inactive) | GI50 (HT-29): 18.5 µM (inactive) | GI50 (IGROV-1): 25.6 µM (inactive) | GI50 (K562): 15.8 µM (inactive) | GI50 (KM-20L2): 21.2 µM (inactive) | GI50 (KM12): 19.9 µM (inactive) | GI50 (LOX IMVI): 2.23 µM (inactive) | GI50 (LXFL 529): 11.8 µM (inactive) | GI50 (M14): 16.3 µM (inactive) | GI50 (M19-MEL): 16.9 µM (inactive) | GI50 (MOLT-4): 18.2 µM (inactive) | GI50 (Malme-3M): 15.5 µM (inactive) | GI50 (NCI-H226): 19.9 µM (inactive) | GI50 (NCI-H23): 14.6 µM (inactive) | GI50 (NCI-H460): 20 µM (inactive) | GI50 (NCI-H522): 3.15 µM (inactive) | GI50 (OVCAR-3): 5.61 µM (inactive) | GI50 (OVCAR-4): 19.4 µM (inactive) | GI50 (OVCAR-5): > 10 µM (inactive) | GI50 (OVCAR-8): 12.6 µM (inactive) | GI50 (RPMI-8226): 20.3 µM (inactive) | GI50 (RXF 393): 14.8 µM (inactive) | GI50 (SF-268): 17.2 µM (inactive) | GI50 (SF-295): 19.3 µM (inactive) | GI50 (SF-539): 18.9 µM (inactive) | GI50 (SK-MEL-2): 20.7 µM (inactive) | GI50 (SK-MEL-5): 14.6 µM (inactive) | GI50 (SK-OV-3): 19.4 µM (inactive) | GI50 (SN12C): 18.1 µM (inactive) | GI50 (SNB-19): 21.2 µM (inactive) | GI50 (SNB-75): 15.6 µM (inactive) | GI50 (SNB-78): 19.3 µM (inactive) | GI50 (SW-620): 15.1 µM (inactive) | GI50 (TK-10): 8.07 µM (inactive) | GI50 (U-251): 15.7 µM (inactive) | GI50 (UACC-257): 19.7 µM (inactive) | GI50 (UACC-62): 22.5 µM (inactive) | GI50 (UO-31): 14.6 µM (inactive)

COc1cc(Cn2c3ccccc3c3cc(C)cc(OC)c32)cc2c1[nH]c1ccccc12
GI50 (786-0): > 25 µM (inactive) | GI50 (COLO 205): > 25 µM (inactive) | GI50 (DLD-1): > 25 µM (inactive) | GI50 (DMS-114): 20 µM (inactive) | GI50 (HCC 2998): > 25 µM (inactive) | GI50 (HCT-116): > 25 µM (inactive) | GI50 (IGROV-1): > 25 µM (inactive) | GI50 (M19-MEL): > 25 µM (inactive) | GI50 (Malme-3M): > 25 µM (inactive) | GI50 (OVCAR-3): 10.2 µM (inactive) | GI50 (OVCAR-5): > 25 µM (inactive) | GI50 (OVCAR-8): 10.5 µM (inactive) | GI50 (RPMI-8226): > 25 µM (inactive) | GI50 (SK-MEL-28): > 25 µM (inactive) | GI50 (SK-MEL-2): > 25 µM (inactive) | GI50 (SK-MEL-5): > 25 µM (inactive) | GI50 (SK-OV-3): > 25 µM (inactive) | GI50 (SN12C): > 25 µM (inactive) | GI50 (SNB-19): > 25 µM (inactive) | GI50 (SNB-78): 23.1 µM (inactive) | GI50 (TK-10): > 25 µM (inactive) | GI50 (U-251): > 25 µM (inactive) | GI50 (UO-31): > 25 µM (inactive)
